System: MOLM-13 cells
Assay: MOLM-13 Cell Proliferation Assay (indicator of DHODH inhibition)
Assay type: cell-based
Settings: Homo sapiens, 72 Hours of culture, CellTiter-Glo, no uridine
Summary of the method: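 Low-passage MOLM-13 cells (10^4/well) in RPMI 1640 + 10% FBS exposed to compound (0.5% DMSO final) for 72 h at 37 °C, 5% CO2. Viability read by CellTiter-Glo luminescence; growth reflects de novo pyrimidine synthesis dependent on DHODH.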

IC50 [nM]	SMILES
259	Fc1ccc(C2c3[nH]c4ccc(F)c(F)c4c3CCN2c2ncc(F)cn2)cc1 (stereo not shown) [Compound 83, 5,6-difluoro-1-(4-fluorophenyl)-2-(5-fluoropyrimidin-2-yl)-2,3,4,9-tetrahydro-1H-pyrido[3,4-b]indole]
2.8	Fc1c(C2c3[nH]c4ccc(Cl)cc4c3CCN2c2nccc(C(F)(F)F)n2)ccc(-n2ccnc2)c1F (stereo not shown) [Compound 285, 6-chloro-1-[2,3-difluoro-4-(1H-imidazol-1-yl)phenyl]-2-[4-(trifluoromethyl)pyrimidin-2-yl]-2,3,4,9-tetrahydro-1H-pyrido[3,4-b]indole]
5.7	N#Cc1ccc(C2c3[nH]c4ccc(Cl)c(F)c4c3CCN2c2nccc(C(F)(F)F)n2)cc1 (stereo not shown) [Compound 89, 4-{6-chloro-5-fluoro-2-[4-(trifluoromethyl)pyrimidin-2-yl]-2,3,4,9-tetrahydro-1H-pyrido[3,4-b]indol-1-yl}benzonitrile]
2.8	Cc1ccc(C2c3[nH]c4ccc(F)cc4c3CCN2c2nc(C(F)(F)F)cc(C(F)(F)F)n2)c(F)c1F (stereo not shown) [Compound 490, 2-[4,6-bis(trifluoromethyl)pyrimidin-2-yl]-1-(2,3-difluoro-4-methylphenyl)-6-fluoro-2,3,4,9-tetrahydro-1H-pyrido[3,4-b]indole]
10.9	Cc1ccc(C2c3[nH]c4cc(F)c(Cl)cc4c3CCN2c2nc(C)c(C)c(C)n2)cc1 (stereo not shown) [Compound 163, 6-chloro-7-fluoro-1-(4-methylphenyl)-2-(4,5,6-trimethylpyrimidin-2-yl)-2,3,4,9-tetrahydro-1H-pyrido[3,4-b]indole]
4.7	Cc1ccnc(N2CCc3c([nH]c4ccc(Cl)c(F)c34)C2c2ccc(/C=C/CCO)cc2)n1 (stereo not shown) [Compound 237, (3E)-4-{4-[6-chloro-5-fluoro-2-(4-methylpyrimidin-2-yl)-2,3,4,9-tetrahydro-1H-pyrido[3,4-b]indol-1-yl]phenyl}but-3-en-1-ol]
11.2	CN1CCN(c2ccc(C3c4[nH]c5ccc(-n6nccn6)cc5c4CCN3c3nccc(C(F)(F)F)n3)cn2)CC1 (stereo not shown) [Compound 513, 1-[6-(4-methylpiperazin-1-yl)pyridin-3-yl]-6-(2H-1,2,3-triazol-2-yl)-2-[4-(trifluoromethyl)pyrimidin-2-yl]-2,3,4,9-tetrahydro-1H-pyrido[3,4-b]indole]
5.2	CSc1ncc(C2c3[nH]c4ccc(Cl)cc4c3CCN2c2nc(C)nc(C)n2)cn1 (stereo not shown) [Compound 346, 6-chloro-2-(4,6-dimethyl-1,3,5-triazin-2-yl)-1-[2-(methylsulfanyl)pyrimidin-5-yl]-2,3,4,9-tetrahydro-1H-pyrido[3,4-b]indole]
4.6	FC(F)(F)c1cnc(N2CCc3c([nH]c4ccc(Cl)cc34)C2c2cnc(N3CCOCC3)nc2)nn1 (stereo not shown) [Compound 458, 6-chloro-1-[2-(morpholin-4-yl)pyrimidin-5-yl]-2-[6-(trifluoromethyl)-1,2,4-triazin-3-yl]-2,3,4,9-tetrahydro-1H-pyrido[3,4-b]indole]
17.2	Fc1cncc(C2c3[nH]c4cc(F)c(Cl)cc4c3CCN2c2nccc(C(F)(F)F)n2)c1 (stereo not shown) [Compound 145, 6-chloro-7-fluoro-1-(5-fluoropyridin-3-yl)-2-[4-(trifluoromethyl)pyrimidin-2-yl]-2,3,4,9-tetrahydro-1H-pyrido[3,4-b]indole]
24.1	Fc1cnc(N2CCc3c([nH]c4cc(F)c(Cl)cc34)C2c2ccc(C3CC3)cc2)nc1 (stereo not shown) [Compound 31, 6-chloro-1-(4-cyclopropylphenyl)-7-fluoro-2-(5-fluoropyrimidin-2-yl)-2,3,4,9-tetrahydro-1H-pyrido[3,4-b]indole]
9.5	FC(F)(F)c1ccnc(N2CCc3c([nH]c4ccc(Cl)cc34)C2c2cnc(N3CCC3)nc2)n1 (stereo not shown) [Compound 344, 1-[2-(azetidin-1-yl)pyrimidin-5-yl]-6-chloro-2-[4-(trifluoromethyl)pyrimidin-2-yl]-2,3,4,9-tetrahydro-1H-pyrido[3,4-b]indole]
37.6	Cc1ccc(C2c3[nH]c4cc(F)c(Cl)cc4c3CCN2c2ncc(F)cn2)cc1 (stereo not shown) [Compound 6, 6-chloro-7-fluoro-2-(5-fluoropyrimidin-2-yl)-1-(4-methylphenyl)-2,3,4,9-tetrahydro-1H-pyrido[3,4-b]indole]
5.2	Cc1cnn(-c2ccc3[nH]c4c(c3c2)CCN(c2nc(C(F)(F)F)cc(C(F)(F)F)n2)C4c2ccc(N3CCOCC3)nc2)n1 (stereo not shown) [Compound 455, 2-[4,6-bis(trifluoromethyl)pyrimidin-2-yl]-6-(4-methyl-2H-1,2,3-triazol-2-yl)-1-[6-(morpholin-4-yl)pyridin-3-yl]-2,3,4,9-tetrahydro-1H-pyrido[3,4-b]indole]
11.7	CCCCN(CCCC)c1nc(C)nc(N2CCc3c([nH]c4ccc(Cl)cc34)C2c2cnc(N3CCOCC3)nc2)n1 (stereo not shown) [Compound 315, N,N-dibutyl-4-{6-chloro-1-[2-(morpholin-4-yl)pyrimidin-5-yl]-1,3,4,9-tetrahydro-2H-pyrido[3,4-b]indol-2-yl}-6-methyl-1,3,5-triazin-2-amine]
3.5	Cc1ccc(C2c3[nH]c4cc(F)c(Cl)cc4c3CCN2c2ncc(F)cn2)c(F)c1F (stereo not shown) [Compound 138, 6-chloro-1-(2,3-difluoro-4-methylphenyl)-7-fluoro-2-(5-fluoropyrimidin-2-yl)-2,3,4,9-tetrahydro-1H-pyrido[3,4-b]indole]

IC50 [nM]	SMILES
30.6	COC(=O)c1nc(N2CCc3c([nH]c4ccc(Cl)cc34)[C@@H]2c2ccc(C)c(F)c2F)nc(C(F)(F)F)n1 [Compound 504, methyl 4-[(1S)-6-chloro-1-(2,3-difluoro-4-methylphenyl)-1,3,4,9-tetrahydro-2H-pyrido[3,4-b]indol-2-yl]-6-(trifluoromethyl)-1,3,5-triazine-2-carboxylate]
31	Fc1cc2[nH]c3c(c2cc1Cl)CCN(c1ncc(Cl)cn1)C3c1ccc(C(F)(F)F)cc1 (stereo not shown) [Compound 80, 6-chloro-2-(5-chloropyrimidin-2-yl)-7-fluoro-1-[4-(trifluoromethyl)phenyl]-2,3,4,9-tetrahydro-1H-pyrido[3,4-b]indole]
60.6	Cc1cnc(N2CCc3c([nH]c4ccc(Cl)cc34)C2c2ccc(F)cc2)nc1 (stereo not shown) [Compound 2, 6-chloro-1-(4-fluorophenyl)-2-(5-methylpyrimidin-2-yl)-2,3,4,9-tetrahydro-1H-pyrido[3,4-b]indole]
1.8	Cc1ccnc(N2CCc3c([nH]c4ccc(Cl)c(F)c34)C2c2ccc(C)c(F)c2F)n1 (stereo not shown) [Compound 196, 6-chloro-1-(2,3-difluoro-4-methylphenyl)-5-fluoro-2-(4-methylpyrimidin-2-yl)-2,3,4,9-tetrahydro-1H-pyrido[3,4-b]indole]
6.1	Oc1cc(C2c3[nH]c4ccc(Cl)cc4c3CCN2c2nccc(C(F)(F)F)n2)ccc1Cl (stereo not shown) [Compound 218, 2-chloro-5-{6-chloro-2-[4-(trifluoromethyl)pyrimidin-2-yl]-2,3,4,9-tetrahydro-1H-pyrido[3,4-b]indol-1-yl}phenol]
10.2	Cc1ccc(C2c3[nH]c4ccc(Cl)c(F)c4c3CCN2c2ncc(C)cn2)cc1 (stereo not shown) [Compound 135, 6-chloro-5-fluoro-1-(4-methylphenyl)-2-(5-methylpyrimidin-2-yl)-2,3,4,9-tetrahydro-1H-pyrido[3,4-b]indole]
2.4	Cc1ccc([C@H]2c3[nH]c4ccc(Cl)cc4c3CCN2c2nc(C#N)cc(C#N)n2)cc1 [Compound 397, 2-[(1S)-6-chloro-1-(4-methylphenyl)-1,3,4,9-tetrahydro-2H-pyrido[3,4-b]indol-2-yl]pyrimidine-4,6-dicarbonitrile]
3.2	CN1CCN(c2ccc([C@H]3c4[nH]c5ccc(Cl)cc5c4CCN3c3nccc(C(F)(F)F)n3)cn2)CC1 [Compound 480, (1S)-6-chloro-1-[6-(4-methylpiperazin-1-yl)pyridin-3-yl]-2-[4-(trifluoromethyl)pyrimidin-2-yl]-2,3,4,9-tetrahydro-1H-pyrido[3,4-b]indole]
21.3	Cc1ccnc(N2CCc3c([nH]c4cc(F)c(Cl)cc34)C2c2ccc(N(C)C)nc2)n1 (stereo not shown) [Compound 126, 5-[6-chloro-7-fluoro-2-(4-methylpyrimidin-2-yl)-2,3,4,9-tetrahydro-1H-pyrido[3,4-b]indol-1-yl]-N,N-dimethylpyridin-2-amine]
20.3	Cc1ccc(C2c3[nH]c4cc(F)c(Cl)cc4c3CCN2c2nccc(C)n2)cc1 (stereo not shown) [Compound 42, 6-chloro-7-fluoro-1-(4-methylphenyl)-2-(4-methylpyrimidin-2-yl)-2,3,4,9-tetrahydro-1H-pyrido[3,4-b]indole]
11.4	CN(C)c1ccc(C2c3[nH]c4ccc(Cl)c(F)c4c3CCN2c2ncc(F)cn2)cn1 (stereo not shown) [Compound 194, 5-[6-chloro-5-fluoro-2-(5-fluoropyrimidin-2-yl)-2,3,4,9-tetrahydro-1H-pyrido[3,4-b]indol-1-yl]-N,N-dimethylpyridin-2-amine]
4.1	Cc1ccc(C2c3[nH]c4ccc(Cl)cc4c3CCN2c2nccc(Cl)n2)cc1 (stereo not shown) [Compound 10, 6-chloro-2-(4-chloropyrimidin-2-yl)-1-(4-methylphenyl)-2,3,4,9-tetrahydro-1H-pyrido[3,4-b]indole]
1.8	Cc1ccc(C2c3[nH]c4ccc(Cl)cc4c3CCN2c2nc(C)nc(C(F)(F)F)n2)cc1 (stereo not shown) [Compound 437, 6-chloro-1-(4-methylphenyl)-2-[4-methyl-6-(trifluoromethyl)-1,3,5-triazin-2-yl]-2,3,4,9-tetrahydro-1H-pyrido[3,4-b]indole]
3.5	CN(C)c1ncc(C2c3[nH]c4ccc(Cl)c(F)c4c3CCN2c2nccc(C(F)(F)F)n2)cc1F (stereo not shown) [Compound 160, 5-{6-chloro-5-fluoro-2-[4-(trifluoromethyl)pyrimidin-2-yl]-2,3,4,9-tetrahydro-1H-pyrido[3,4-b]indol-1-yl}-3-fluoro-N,N-dimethylpyridin-2-amine]
6.3	FC(F)(F)c1ccnc(N2CCc3c([nH]c4ccc(Cl)cc34)C2c2ccc(-n3ccnc3)cc2)n1 (stereo not shown) [Compound 260, 6-chloro-1-[4-(1H-imidazol-1-yl)phenyl]-2-[4-(trifluoromethyl)pyrimidin-2-yl]-2,3,4,9-tetrahydro-1H-pyrido[3,4-b]indole]

Source: US20250186437A1, “CARBOLINE COMPOUNDS AND USE THEREOF” (PTC Therapeutics, Inc., priority 2021, published 2025)
